# From patent US8232401B2 (Japan Tobacco Inc., priority 2002, dated 2012)
# Tested on: not given
# Assay: not given
# Settings: not given
row,Compound,melting point
1,"O=C(O)c1cn(CCO)c2ccc(Cc3cccc(Cl)c3Cl)cc2c1=O [Example 1-1, 6-(2,3-dichlorobenzyl)-1,4-dihydro-1-(2-hydroxyethyl)-4-oxo-3-quinolinecarboxylic acid]",247 to 249 °C

# Target: T1, HIV integrase (Human immunodeficiency virus type 1 group M subtype B, UniProt P12497, F1332H)
# T1 construct: HIV integrase full length gene; made in house; host or cells: Escherichia coli BL21(DE3)
# Assay: Determination of enzyme (HIV integrase) inhibitory activity (strand transfer, microtiter plate, absorbance at 450 nm)
# Type: biochemical, HIV (Human Immunodeficiency Virus (type 1))
# Settings: recombinant HIV integrase (F185H) expressed in E. coli; donor DNA on streptavidin plate, digoxigenin target DNA; 37° C.
row,Compound,IC50
1,"O=C(O)c1cn(CCO)c2ccc(Cc3cccc(Cl)c3Cl)cc2c1=O [Example 1-1, 6-(2,3-dichlorobenzyl)-1,4-dihydro-1-(2-hydroxyethyl)-4-oxo-3-quinolinecarboxylic acid]",29 nM
2,"COc1cc2c(cc1Cc1cccc(Cl)c1F)c(=O)c(C(=O)O)cn2[C@H](CO)C1CCCCC1 [Example 4-42, (S)-6-(3-Chloro-2-fluorobenzyl)-1-(1-cyclohexyl-2-hydroxyethyl)-7-methoxy-4-oxo-1,4-dihydroquinoline-3-carboxylic acid]",2.3 nM
3,"CCOc1cc2c(cc1Cc1cccc(Cl)c1F)c(=O)c(C(=O)O)cn2[C@H](CO)C1CCCCC1 [Example 4-43, (S)-6-(3-Chloro-2-fluorobenzyl)-1-(1-cyclohexyl-2-hydroxyethyl)-7-ethoxy-4-oxo-1,4-dihydroquinoline-3-carboxylic acid]",2.8 nM
4,"COc1cc(Cc2cccc(Cl)c2F)cc2c(=O)c(C(=O)O)cn([C@H](CO)C3CCCCC3)c12 [Example 4-44, (S)-6-(3-Chloro-2-fluorobenzyl)-1-(1-cyclohexyl-2-hydroxyethyl)-8-methoxy-4-oxo-1,4-dihydroquinoline-3-carboxylic acid]",2.4 nM
5,"CCOc1cc(Cc2cccc(Cl)c2F)cc2c(=O)c(C(=O)O)cn([C@H](CO)C(C)C)c12 [Example 4-45, (S)-6-(3-Chloro-2-fluorobenzyl)-8-ethoxy-1-(1-hydroxymethyl-2-methylpropyl)-4-oxo-1,4-dihydroquinoline-3-carboxylic acid]",3.4 nM
6,"COc1cc(Cc2cccc(Cl)c2F)cc2c(=O)c(C(=O)O)cn([C@H](CO)C(C)C)c12 [Example 4-46, (S)-6-(3-Chloro-2-fluorobenzyl)-1-(1-hydroxymethyl-2-methylpropyl)-8-methoxy-4-oxo-1,4-dihydroquinoline-3-carboxylic acid]",5 nM
7,"CCC[C@@H](CO)n1cc(C(=O)O)c(=O)c2cc(Cc3cccc(Cl)c3F)cc(OC(C)C)c21 [Example 4-47, (S)-6-(3-Chloro-2-fluorobenzyl)-1-[1-(hydroxymethyl)butyl]-8-isopropyloxy-4-oxo-1,4-dihydroquinoline-3-carboxylic acid]",2.3 nM
8,"CCC[C@@H](CO)n1cc(C(=O)O)c(=O)c2cc(Cc3cccc(Cl)c3F)cc(OCC)c21 [Example 4-48, (S)-6-(3-Chloro-2-fluorobenzyl)-8-ethoxy-1-[1-(hydroxymethyl)butyl]-4-oxo-1,4-dihydroquinoline-3-carboxylic acid]",3 nM
9,"CCC[C@@H](CO)n1cc(C(=O)O)c(=O)c2cc(Cc3cccc(Cl)c3F)cc(OC)c21 [Example 4-49, (S)-6-(3-Chloro-2-fluorobenzyl)-1-[1-(hydroxymethyl)butyl]-8-methoxy-4-oxo-1,4-dihydroquinoline-3-carboxylic acid]",5.7 nM
10,"CC(C)Oc1cc(Cc2cccc(Cl)c2F)cc2c(=O)c(C(=O)O)cn([C@H](CO)C3CCCCC3)c12 [Example 4-50, (S)-6-(3-Chloro-2-fluorobenzyl)-1-(1-cyclohexyl-2-hydroxyethyl)-8-isopropyloxy-4-oxo-1,4-dihydroquinoline-3-carboxylic acid]",3.1 nM
